Values after ≈ are worked out from the molar mass of the structure shown. Like-named read-outs stand apart in the source and are kept apart here.
Columns and labels:
CD4 [1] = target: T1, CD4 (Homo sapiens, UniProt P01730); assay: Cell surface CD4 expression by flow cytometry (anti-CD4 mAb Leu3a-PE); assay type: cell-based; design: To study the effect of the CADA derivatives on surface CD4 antigen expression, MT-4 and SupT1 cells were incubated; endogenous in cells; host or cells: MT-4, SupT1, PBMC; conditions: for percentage of cell surface CD4 expression: SupT1 cells, ATA 24 μM, CADA 16 μM, PMA 8 nM (FIG. 4)
Procedure: FIGS. 2A-2C. Surface CD4 expression in MT-4 cell line, SupT1 cell line and PBMCs after incubation with CADA hydrochloride (3.2 or 16 μM) for 1 and 4 days. (A) Cell surface CD4 expression of control MT-4 cells and MT-4 cells treated with CADA (3.2 μM) for 1 day or 4 days. (B) Cell surface CD4 expression of control SupT1 cells and SupT1 cells treated with CADA (3.2 μM) for 1 day or 4 days. (C) Cell surface CD4 expression of control PBMCs and PBMCs treated with CADA (16 μM) for 1 day or 4 days. The cells were stained with anti-CD4 mAb (Leu3a-PE). Percentages of fluorescent cells and MFI (mean fluorescence intensity) are indicated in each histogram.
FIG. 4. Comparison of the effects on CD4 modulation by ATA (24 μM), CADA hydrochloride (16 μM) and PMA (8 nM) in SupT1 cells after incubation with the compounds analyzed after 20 minutes, 4 hours, 1 day and 4 days.
Cells were incubated with CADA hydrochloride and the CD4 expression on the cell surface was analyzed. […] In peripheral blood mononuclear cells (PBMCs), the percentage of CD4 expression decreased to 0.2% after incubation with CADA (16 μM) for 4 days (FIG. 2).
Expression of various other surface antigens was also examined in MT-4 cells, SupT1 cells and PBMCs after incubation with CADA (16 μM) or CADA-free medium at 37° C. for 4 days. After washing with phosphate-buffered saline (PBS) containing 2% FCS(fetal calf serum), the cells were incubated with mAb (as indicated in Table 1) for 20 min at 4° C. Then the cells were washed, fixed with 1% formaldehyde and analyzed by flow cytometry. All mAbs were purchased from Becton-Dickinson (Erembodegem, Belgium).
CADA was compared with ATA and PMA with regard to their down-modulating effects. […] At day 4, the CD4 expression in SupT1 cells treated with CADA reduced to 1.2%.

[2] = Cytotoxic concentration (Example 2); assay type: cell-based; conditions: human, SupT1 cells; read-out: CC50
[3] = Cytotoxic concentration (Example 2); assay type: cell-based; conditions: human, MT-4 cells; read-out: CC50
HHV-7 (KHR strain) [4] = assay: Anti-HHV-7 assay (HHV-7 antigen expression, flow cytometry, day 12); assay type: cell-based; conditions: SUP-T1, read-out: IC50 for HHV-7 infection
Procedure: The antiviral activity of CADA against HIV-1 and RHV-7 was investigated. PBMCs and […] cell-depleted PBMCs (removed with CD8 magnetic beads; Dynal AS, Oslo, Norway), previously activated with purified PHA (2 μg/ml) and rhIL-2 (1 ng/ml) for 3 days, were pelleted and exposed to HIV-1 (1 ng p24 Ag per 10^6 cells) for 2 hours at 370C. Then the cells were washed three times with warm medium and cultured in complete medium containing rhIL-2 (1 ng/ml) in the presence or absence of different concentrations of CADA hydrochloride. The anti-HIV-1 assays were also performed in MT-4 and SupT1 cells. CADA hydrochloride was diluted in the plates, then the MT-4 cells or SupT1 cells were added and finally the T-tropic HIV-1 strains. The supernatant was collected at day 5 for MT-4 cells, day 8 for SupT1 cells and day 12 for PBMCs, and stored at −20° C. and analyzed for HIV-1 core antigen by p24 Ag ELISA (NEN, Brussels, Belgium). The SupT1 cells were refreshed on day 4, and half of the medium and cells were replaced and fresh CADA-free medium was added. For the PBMCs, fresh culture medium was added at day 6 containing rhIL-2 (but no CADA). For the anti-HHV-7 assays in PBMCs, CADA hydrochloride was diluted in a plate, 2×10˜cells were added and then HHV-7 (KHR strain) was added in complete medium containing rhIL-2 (1 ng/ml). Fresh culture medium was added again at day 6 containing rhIL-2 (but no CADA). The same infection protocol was used for the SupT1 cells, but without rhIL-2. The SupT1 cells were refreshed on day 4 and day 8, half of the medium and the cells were replaced, and fresh medium without CADA was added. The HHV-7 antigen expression was monitored (at day 12) with a specific mAb to HHV-7 (RK-4) (Advanced Biotechnologies, Columbia, Md.) by flow cytometry, as described previously (Thang, Y., et al., Antiviral Res. 43:23-35 (1999)).

HIV-1 and HHV-7 = assay: Selectivity index (ratio of CC50 to IC50), antiviral assays; assay type: cell-based; conditions: over the viruses and cell types tested
Procedure: The IC50 of CADA against the CCR5-using (R5) HIV-1 strain BaL was 0.8 μM in PBMCs. […] The IC50 of PMA for the HIV-1 strains (IIIB, RF and NL4.3) in MT-4 cells was about 0.3 nM, and the IC50 for HHV-7 infection in SupT1 cells was 0.6 nM.

CD4 [5] = target: T1, CD4; assay: CD4 down-modulation, flow cytometry with FITC-conjugated anti-CD4 (SK3) mAb, SupT1 cells; assay type: cell-based; design: To study the effect of the CADA derivatives on surface CD4 antigen expression, MT-4 and SupT1 cells were incubated; endogenous in cells; host or cells: MT-4, SupT1, PBMC; conditions: day 4, read-out: IC50 CD4 (50% inhibition of extracellular CD4 expression) (converted)
Procedure: (§1) Flow Cytometric Analyses. To study the effect of the CADA derivatives on surface CD4 antigen expression, MT-4 and SupT1 cells were incubated with a serial 5-fold dilution of the compounds (50, 10, 2, 0.4 and 0.08 μg/ml) or medium at 37° C. Cell surface CD4 antigen expression was analyzed at day 3 (MT-4) or day 4 (SupT1). Briefly, after washing with phosphate-buffered saline (PBS) containing 2% fetal calf serum (FCS), cells were incubated with FITC-conjugated anti-CD4 (SK3) mAb for 30 min at 4° C. As a negative control for a specific background staining, cells were stained in parallel with Simultest Control γ1/γ^2a (Becton Dickinson). Then the cells were washed, fixed with 1% formaldehyde and analyzed by flow cytometry in a FACScalibur (Becton Dickinson, San Jose, Calif., USA). Data were acquired and analyzed with CellQuest software (Becton Dickinson). For the calculation of the CD4 receptor expression, the mean fluorescence intensity (MFI) of each sample was expressed as percentage of the MFI of control cells (after subtracting the MFI of the isotype control). Finally, the IC50 value of the compounds (i.e., the concentration of the compound required for 50% inhibition of extracellular CD4 expression) was calculated.

CD4 [6] = target: T1, CD4; assay: CD4 down-modulation, flow cytometry with FITC-conjugated anti-CD4 (SK3) mAb, MT-4 cells; assay type: cell-based; design: To study the effect of the CADA derivatives on surface CD4 antigen expression, MT-4 and SupT1 cells were incubated; endogenous in cells; host or cells: MT-4, SupT1, PBMC; conditions: for IC50: MT-4 cells, day 3, read-out: IC50 CD4 (50% inhibition of extracellular CD4 expression) (converted)
Procedure: as §1, with “Cell surface CD4 antigen expression was analyzed at day 3 (MT-4) or day 4 (SupT1).” left out

HIV-1 strain NL4.3 = assay: Anti-HIV-1 assay in MT-4 cells (p24 Ag ELISA, Example 3); assay type: cell-based
Procedure: Antiviral Assays. For HIV-1, MT-4 cells were infected with the HIV-1 strain NL4.3. Briefly, five-fold dilutions of the compounds (in 100 μl) were added to 96-well flat bottom plates (Iwaki, Japan). Then, to each well, 7.5×10^4 MT-4 cells were added in 50 μl medium, followed by 50 μl of diluted HIV-1 stock (strain NL4.3). Cytopathic effect (CPE) induced by the virus was checked regularly microscopically. When strong CPE was observed (after 3 to 5 days of incubation) in untreated HIV-1 infected cells, the supernatant was collected, stored at −20° C. and analyzed for HIV-1 core antigen by p24 Ag ELISA (NEN™, PerkinElmer Life Sciences, Boston, Mass.). Finally, the IC50 value of the compounds (i.e., the concentration of the compound required for 50% reduction of HIV infection as measured by viral p24 antigen level in the supernatant of infected MT-4 cells) was calculated.

HHV-7 (KHR strain) [7] = assay: Anti-HHV-7 assay in SupT1 cells (antigen expression, flow cytometry, Example 3); assay type: cell-based
Procedure: For HHV-7, five-fold dilutions of the compounds were added in 500 μl culture medium in 24-well flat bottom plates (Iwaki, Japan), whereupon 2×10^5 SupT1 cells were added in 400 μl culture medium. After 30 min incubation at room temperature, 100 μl of HHV-7 stock was added to each well. HHV-7-infected and mock-infected SupT1 cells were cultured in a final volume of 1 ml medium in the absence of the compounds. On day 4, half of the medium and the cells were replaced and fresh medium without new compound was added. This procedure was repeated every 2 or 3 days. The CPE was checked regularly microscopically. When CPE was observed, the HHV-7 antigen expression was monitored by flow cytometry, as described previously (Zhang, Y. et al. (1999) “Selective activity of various antiviral compounds against HHV-7 infection Antiviral Res. 43, 23-35.)

[8] = Cytotoxicity assay (trypan blue exclusion, propidium iodide); assay type: cell-based, human; conditions: human, read-out: CC50 (50% cytotoxic concentration)
Procedure: Cytotoxicity Assay. Cellular toxicity of the compounds was measured by trypan blue exclusion and also by Propidium Iodide by flow cytometry after 3 or 4 days of incubation, in parallel with the CD4 antigen expression. The CC50 value of each CADA analog is the concentration (in μg/ml) required to reduce the viability of the cells by 50%.

IC50 (HIV-1 strain NL4.3; Human immunodeficiency virus 1, MT4, MT-4 cells, read-out: IC50 HIV-1 (NL4.3), p24 Ag ELISA)	IC50 (HHV-7 (KHR strain) [7]; SUP-T1, SupT1 cells, read-out: IC50 HHV-7 (50% reduction of HHV-7 antigen expression))	Structure (SMILES)	percentage of cell surface CD4 expression (CD4 [1]; 20 minutes)	percentage of cell surface CD4 expression (CD4 [1]; 4 hours)	percentage of cell surface CD4 expression (CD4 [1]; 1 day)	percentage of cell surface CD4 expression (CD4 [1]; 4 days)	CC50 [2]	CC50 [3]	IC50 (HHV-7 (KHR strain) [4])	selectivity index (SI), ratio of CC50 to IC50 (HIV-1 and HHV-7)	IC50 (CD4 [5])	down-regulation of CD4 expression (in words) (CD4 [1])	IC50 (CD4 [6])	CC50 ([8]; MT-4 cells)	CC50 ([8]; SupT1 cells)	CD4 down-modulating activity, fold less active than CADA (CD4 [6]; compared to CADA, MT-4 cells (stated for some compounds))	IC50 (HIV-1 strain NL4.3; Human immunodeficiency virus 1, MT4, read-out: IC50 HIV-1 (NL4.3), p24 Ag ELISA)	IC50 (HHV-7 (KHR strain) [7]; SUP-T1, read-out: IC50 HHV-7 (50% reduction of HHV-7 antigen expression))
–	–	CCCCCCCCCCCCCC(=O)O[C@@H]1[C@@H](C)[C@@]2(O)[C@@H](C=C(CO)C[C@]3(O)C(=O)C(C)=C[C@@H]23)[C@@H]2C(C)(C)[C@]12OC(C)=O [PMA, Phorbol myristate acetate, reference compound]	only a slight CD4 decrease	dramatically decreased	almost undetectable	81.6%	0.0015 µM	0.0021 µM	0.0006 µM	2-7	–	–	–	–	–	–	–	–
4.23 µg/mL (≈ 7.56 µM)	1.55 µg/mL (≈ 2.77 µM)	C=C1CN(S(=O)(=O)c2ccc(C)cc2)CCCN(C2CCCC2)CCCN(S(=O)(=O)c2ccc(C)cc2)C1 [QJ040]	–	–	–	–	–	–	–	–	14.1 µM	down-regulate CD4 expression	9.54 µM	17 µg/mL (≈ 30.4 µM)	20.5 µg/mL (≈ 36.6 µM)	–	–	–
–	–	C=C1CN(S(=O)(=O)c2ccc(C)cc2)CCCN(Cc2ccc[nH]2)CCCN(S(=O)(=O)c2ccc(C)cc2)C1 [QJ027]	–	–	–	–	–	–	–	–	10.5 µM	down-regulate CD4 expression	6.78 µM	20.2 µg/mL (≈ 35.4 µM)	21.7 µg/mL (≈ 38 µM)	10 fold	4.4 µg/mL (≈ 7.71 µM)	3.1 µg/mL (≈ 5.43 µM)

From patent US20040220164A1, “Triaza compound immunoregulatory agents” (priority 2001, published 2004)
